The nature of this data set: in vitro. The conditions noted are these: human, hela cells, % viability.

The results in this text go back to publication PMC12040169 (PLOS Biology, 2025).

For orientation: viability means a read-out of living cells in per cent, often relative to untreated cells.

Take `CC(C)(C)S(=O)(=O)Cc1noc(-c2ccc(Cl)nc2)n1` [CBK089825]: the viability at 28.5 h, 10 µM was 98.9%. In the case of `CC(=O)N1CCC2(CC1)OCc1cc(-c3ccccc3C#N)ccc1O2` [CBK061006], under “bulk resorufin, single well”, the viability at 28.5 h, 10 µM came out at 100%. Turning to `COc1ccc2c(c1)CCN=C2C[C@H]1CN(C(=O)C2CC2)CC[C@H]1CC(=O)O` [CBK289154], the viability at 28.5 h, 10 µM was 108%. As to `O=C(CCCn1cccn1)N1CCOC(c2ccc(Cl)cc2)C1` (centres unmarked) [CBK304643], the viability at 28.5 h, 10 µM worked out at 79.1%. `O=C(NCCN1CCNCC1)c1ccccn1` [CBK278241C]: the viability at 28.5 h, 10 µM was determined as 108%. Same read-out and setting: to `Cc1ccc(-n2c(SCC(=O)N3CCOCC3)nnc2-c2ccccc2O)c(C)c1` [CBK269112] belongs 88.1%. Same read-out and setting: in the case of `C1=CCC(CN(CCCn2ccnc2)Cc2cccnc2)CC1` (centres unmarked) [CBK283216] it was 88.6%; in that of `CCCn1c(SCC(=O)Nc2scc(CC(C)C)c2C(=O)OCC)n[nH]c1=O` [CBK295615], 98.1%. With `c1ccc2sc(-c3cc(Nc4ccc5[nH]ccc5c4)ncn3)cc2c1` [CBK090858], the viability at 28.5 h, 10 µM came out at 82.5%. `CCn1ncc(S(=O)(=O)N2CCCC(c3cccc(Cc4cccc(C)c4)n3)C2)c1C` (centres unmarked) [CBK286244]: the viability at 28.5 h, 10 µM came to 97.7%.

On to `Cn1cc(CC(=O)NCc2ccccc2)c2ccccc21` [CBK200200], for which the viability at 28.5 h, 10 µM is 84.1%. As for `Cc1ccc(S(=O)(=O)N2CCN(C(=O)c3ccco3)CC2)cc1` [CBK068166], the viability at 28.5 h, 10 µM came out at 92.8%. The same measure, in the same setting: to `COc1ccc(C(=O)N2CCC3(CCCN(C(=O)c4ccc5ncccc5c4)C3)C2)cc1OC` (centres unmarked) [CBK131656] belongs 92.4%. In the case of `CCn1cncc1C(=O)Nc1ccc(-n2ccnc2C(C)C)cc1` [CBK281379], the viability at 28.5 h, 10 µM turned out to be 95.8%. On the same count and under the same terms, to `Cc1ccc(CN(CCCN2CCOCC2)Cc2ccoc2)o1` [CBK283234] belongs 81%; to `Cc1nn(C)c(Cl)c1S(=O)(=O)Nc1cccc(-c2cnco2)c1` [CBK067107], 78.8%; to `COc1ccc(Cl)cc1N1CCN(CCO)CC1` [CBK138339], 88.7%. On to `O=C(Nc1ccc(-c2nc3cc(-c4nc5cc(NC(=O)c6cccs6)ccc5[nH]4)ccc3[nH]2)cc1)c1cccs1` [CBK261614], for which the viability at 28.5 h, 10 µM is 97.6%. On the same count and under the same terms, to `COc1ccc(-c2ccccc2NC(=O)c2ccc(Cn3cnnn3)cc2)cc1` [CBK285866] belongs 96.4%; to `Cc1nc2ccccc2[nH]/c1=N/O` [CBK018103], 104%. `Cc1ccc(C(=O)Nc2ccc(N3CCCCC3)c(F)c2)c(=O)n1C` [CBK281390]: the viability at 28.5 h, 10 µM was 89.5%. Same read-out and setting: in the case of `COc1ccc(NC(=O)CC2SC(=N)NC2=O)c([N+](=O)[O-])c1` (centres unmarked) [CBK265334] it was 95.9%. On the same count and under the same terms, to `CC(C)N1CCC(C(=O)NC(=O)Nc2ccc3c(c2)OCCO3)CC1` [CBK034799] belongs 93.6%; to `CCCN[C@@H]1CCc2cc(CNC(=O)c3ccc(C#N)cc3)ccc2C1` [CBK010211C], 101%. The same measure, in the same setting: to `CC(NC(=O)Cc1ccc(F)cc1)c1nc2cccnc2n1C(C)C` (centres unmarked) [CBK283830] belongs 88.7%; to `CN1CCC(N2CC[C@H](c3nnc(-c4cncn4C)o3)C2)CC1` [CBK289403], 117%.

In the case of `CCNC(=O)N1CC(C)N(CCCC(c2ccc(F)cc2)c2ccc(F)cc2)CC1C` (centres unmarked) [CBK024912C], the viability at 28.5 h, 10 µM was 105%. On the same count and under the same terms, to `CC(C)(C)c1ccnc(N[C@H]2CO[C@H]3[C@@H]2OC[C@@H]3NC(=O)c2cccs2)n1` [CBK289520] belongs 94.8%.

For the compound `CN1CCCc2c1nc1ccc(Br)cc1c2N` [CBK009692G], the viability at 28.5 h, 10 µM was 58.9%. On the same count and under the same terms, in the case of `Cc1conc1C(=O)N1CCCCC1CN1CCOCC1` (centres unmarked) [CBK304771] it was 92.7%. Turning to `COc1cc(C)c(Nc2cc(-c3cccc(N(C)C)c3)ncn2)cc1OC` [CBK090780], the viability at 28.5 h, 10 µM came to 43.5%. Consider `Cc1ccc2c(CC(=O)NCCn3cncn3)coc2c1` [CBK283240], for which the viability at 28.5 h, 10 µM is 93.8%. Turning to `CC(C)C[C@@H]1NC(=O)C2(C/C=C/C[C@@H]3COCC[C@@H]3NC1=O)CCN(C(=O)[C@H](CO)NC(=O)OCc1ccccc1)CC2` [CBK292191], the viability at 28.5 h, 10 µM was determined as 102%. The same measure, in the same setting: to `CCCCCCN(CCN1CCOCC1)C(=O)Nc1cc(C)on1` [CBK305147] belongs 84.7%.

As to `CSc1nnc(C(N)Cc2c[nH]c3ccccc23)o1` (centres unmarked) [CBK269950C], the viability at 28.5 h, 10 µM (bulk resorufin, single well) was 89.8%. In the case of `Nc1nc2ccccc2cc1-c1cccs1` [CBK112549], the viability at 28.5 h, 10 µM was 100%.

For `COc1ccc(NC(=O)c2ccccc2CCc2ccccc2)c([N+](=O)[O-])c1` [CBK268632], the viability at 28.5 h, 10 µM came to 97%. On the same count and under the same terms, to `COC12CCCC(C(=O)O)(CCC1)C2` [CBK038238] belongs 93.8%; to `O=C(O)c1cc(C=Cc2ccc(OC(F)F)cc2)nc2ccccc12` [CBK297532], 85.3%. Still for that read-out and setting: to `c1ccc(-c2cc(CC3(NCC4CCCCC4)COC3)no2)nc1` [CBK289644] belongs 93%. Still for that read-out and setting: to `CC(=O)Nc1ccc(CNc2nnc(C3CCCCC3)o2)cc1` [CBK306427] belongs 105%; to `CC(C)n1c(NCc2nc3ccccc3n2C)nc2ccccc21` [CBK265571], 83.6%. In the case of `CCNC(=O)N1CC2(CCN(Cc3ccc4nsnc4c3)CC2)c2ccccc21` [CBK136968], the viability at 28.5 h, 10 µM was 102%. Same read-out and setting: in the case of `O=C(O)CCc1nnc(S)n1Cc1ccccc1` [CBK286926] it was 93.8%; in that of `NCC(=O)N(CCC1CCCC1)c1cccc2ccccc12` [CBK011922C], 88.2%. For `O=C(CN(c1ccc(Cl)cc1)S(=O)(=O)c1ccccc1)Nc1ccc2ccccc2c1` [CBK263776], the viability at 28.5 h, 10 µM is 112%. On to `CC(C)NC(=O)N1Cc2nc[nH]c2C[C@H]1C(=O)NCc1ccco1` [CBK288974], for which the viability at 28.5 h, 10 µM is 92.9%. Same read-out and setting: to `CC(C)(C)c1nnc(NC(=O)c2ccc(F)cc2)s1` [CBK086855] belongs 89%; to `NNC(=O)C(NC(=O)c1ccccc1)c1n[nH]c(=O)c2ccccc12` (centres unmarked) [CBK261144], 92.9%; to `NC(=O)C1CCN(C(=O)C2=NN(c3ccccc3)C(c3ccccc3)C2)CC1` (centres unmarked) [CBK296760], 99.1%. The same measure, in the same setting: to `CC(=O)Nc1ccc(NCc2nc(CC(C)C)no2)c(C(F)(F)F)c1` [CBK305799] belongs 110%.

Regarding `CCNC(=O)Nc1ncc(-c2cc(OC)c(OC)c(OC)c2)c2cccnc12` [CBK070635], the viability at 28.5 h, 10 µM was determined as 83.2%. As for `Cc1nc2c(c(=O)[nH]1)CC[C@@H]1CN(C(=O)c3cccs3)C[C@H]21` [CBK284406], the viability at 28.5 h, 10 µM is 88.7%.

Regarding `CN(C)/N=C\c1cccc(O)c1` [CBK015814], the viability at 28.5 h, 10 µM was 95.2%. On the same count and under the same terms, in the case of `CCN1CCCC1CN(Cc1ccncc1)Cc1ccoc1` (centres unmarked) [CBK283171] it was 91%; in that of `COc1ccc(NC(=O)CSc2nc3c(c(-c4cccs4)c2C#N)CN(C)CC3)cc1OC` [CBK267444], 103%; in that of `O=C(CCOc1ccccc1)Nc1cc(N2CCNCC2)ncn1` [CBK004225T], 98.6%. Consider `Cc1ccc2nc(SCC(=O)Nc3ccccc3Br)c(C#N)cc2c1` [CBK068169], for which the viability at 28.5 h, 10 µM was 94.4%. Same read-out and setting: in the case of `CS(=O)(=O)N(CC(=O)Nc1ccc(S(=O)(=O)N2CCCCCC2)cc1)c1ccc(F)cc1` [CBK266932] it was 91.8%. `c1cn2cc(-c3ccc(N4CCOCC4)cc3)nc(NCC3CCOCC3)c2n1` [CBK037308]: the viability at 28.5 h, 10 µM stood at 96.3%. On to `O=C(O)/C=C/C(=O)NNC(=O)c1ccccc1Br` [CBK261786], for which the viability at 28.5 h, 10 µM worked out at 111%.

Turning to `CC1(C)Cc2c(ccc3ccccc23)C(NCC(=O)O)=N1` [CBK262559], the viability at 28.5 h, 10 µM was found to be 97.6%.

Turning to `COCC(=O)N1C[C@@H](c2ccc(F)c(F)c2)[C@@]2(CCCC(=O)N2)C1` [CBK283358], the viability at 28.5 h, 10 µM amounted to 103%.

With `CN(CCOC(=O)c1cccs1)C(C)(C)C` [CBK027559C], the viability at 28.5 h, 10 µM worked out at 88.6%. For the compound `O=C(O)C1(NCc2ccc(F)cc2)CCCCC1` [CBK287270], the viability at 28.5 h, 10 µM was determined as 87.1%.

In the case of `CC(C)(C)OC(=O)NCCC(=O)Oc1ccc2c3c(c(=O)oc2c1)CCCC3` [CBK265008], the viability at 28.5 h, 10 µM was 89.3%. Same read-out and setting: in the case of `CN(C)CCN(C)C(=O)c1cc2cc(OC(F)(F)F)ccc2[nH]1` [CBK107316] it was 91.5%; in that of `CC(CN(C)C)C(=O)c1cn(C)c2ccccc12` (centres unmarked) [CBK015540], 102%. Same read-out and setting: to `O=C(O)COCCn1cc(-c2ccc(Cl)cc2)cn1` [CBK021914] belongs 84.5%. Same read-out and setting: to `Cc1nn(C)cc1C(=O)N1CCCC1c1nc2ccccc2[nH]1` (centres unmarked) [CBK282371] belongs 84.7%; to `Nc1ccc(-c2nc3cc(C(=O)c4ccc5[nH]c(-c6ccc(N)cc6)nc5c4)ccc3[nH]2)cc1` [CBK262848], 99.7%; to `CC(C)CCC1(CN2CCCC2=O)C(=O)NC(=O)NC1=O` [CBK288372], 90.5%.

For the compound `O=C(COc1ccccc1)Nc1cnc(-c2ccc(F)cc2)c(-c2ccsc2)n1` [CBK036958], the viability at 28.5 h, 10 µM was 91.7%. The same measure, in the same setting: to `CCOC(=O)CCNC(=O)C1(c2ccccc2)CCCC1` [CBK149543] belongs 88.2%; to `COc1ccc(/C=N/NC(=O)c2ccc(O)cc2O)cc1COc1cc(C)c(Cl)c(C)c1` [CBK263000], 90.3%. On to `O=C(/C=C/c1ccc([N+](=O)[O-])cc1)Nc1ccc(O)cc1C(=O)O` [CBK263613], for which the viability at 28.5 h, 10 µM turned out to be 81%. As to `COc1cc(C(C)NC2CCN(c3nc(C)cs3)CC2)ccn1` (centres unmarked) [CBK304247], the viability at 28.5 h, 10 µM is 83.4%. On the same count and under the same terms, in the case of `CCOc1ccsc1C(=O)N1CCN(CCc2ccccc2)CC1` [CBK200229] it was 91.5%; in that of `Nc1ncc(-c2ccoc2)nc1-c1ccc(C(=O)O)cc1` [CBK063972], 89.6%; in that of `CN1C(=O)C2(CC(=O)N(CCC3CCCCC3)C2=O)c2cc(Cl)ccc21` (centres unmarked) [CBK075231], 92%.
